Data as given in paper PMC12459314, “Subcutaneous administration of a novel TRPM8 antagonist reverses cold hypersensitivity while attenuating the drop in core body temperature” (British journal of pharmacology, 2024).
“And” between values parts separate entries of the source, which are not always exact repeats. Equal entries are not always repeated. Where two headings read alike, the source gives them in different places.

Assays:
[1] = Core body temperature and home cage activity by radiotelemetry (s.c., i.p.); format: in vivo, mouse
Experimental: Male and female C57Bl6J (Jackson Laboratories, Bar Harbor, USA, 8–12 weeks of age, 4 M:3F) were anaesthetised with isoflurane (2%–3% in 100% oxygen), and an HDX11 telemetry unit (Data Sciences) was inserted into the peritoneal cavity through a ventral midline incision. Animals were treated with buprenex (0.05 mg·kg^−1, s.c.every 8 h for 72 h) and enrofloxacin (2 mg·kg^−1, s.c.) and single-housed in a reverse light–dark cycle room (lights off 10 AM–10 PM). Mice were handled every day to acclimatise to injections, and experiments began 1 week later. All injections were performed between 1 and 2 PM. […] Body temperature was averaged into 5-min bins, whereas activity data were summed for the 5-min bin.

[2] = Brain levels in vivo by UPLC-MS/MS; design: species or system rat
Experimental: VBJ103 levels in the brain were determined by PsychoGenics Inc (Paramus, USA). VBJ103 and vehicle solutions were administered subcutaneously at a dose of 100 mg·kg^−1. Male and female Sprague–Dawley rats (200–250 g) supplied by Envigo were used in this study and housed three per cage (26 cm × 47.6 cm × 20.3 cm) upon arrival. Rats with jugular vein catheters (JVC) were housed two per cage with a divider to prevent damage to catheters. Cages contained BedO’-Cob® bedding with Nylabones® for enrichment. Rats were acclimatised for 2 to 7 days prior to commencing studies. All rats were examined, handled and weighed prior to initiation of the study to assure adequate health and suitability. During the course of the study, 12/12 light/dark cycles were maintained with lights on at 6 AM. The room temperature was maintained between 20°C and 23°C with a relative humidity maintained around 50%. Chow (Lab diet 5001, LabDiet, St. Louis, MO, USA) and water were provided ad libitum throughout the acclimatisation period and during the treatment and collection period. Rats were randomly assigned to the experimental groups.
UPLC-MS/MS analysis was performed on a ODS 3 Inertsil C18 column 2.1 × 50 mm, 2 μm (GL Sciences 5020–84652), using a gradient of 40:60 solvent A (H2O + 0.5% formic acid):solvent B (ACN + 1.0% formic acid) → 0:100 for 2 min at a flow rate of 0.5 ml·min^−1. The following parameters were used: injection volume 5 μl, column temperature 40°C, pre-column temperature 40°C and sample temperature 4°C. Eluted peaks were monitored with a Waters Xevo TQ-XS coupled to an Acquity i-Class Plus UPLC setup (range: 334.19 Da to 155.04 and 198.08 Da). RT = 1.15 min. The range of quantitation was 0.25 to 10,000 ng·ml^−1 for brain. The software Masslynx V4.2 SCN1012 was used for instrument control and data acquisition.
Brain collection was performed via live decapitation. Whole brains were collected at 1 h following administration and upon completion of serial collections (24 h). Resultant brains were rinsed in saline and frozen immediately on a cold plate (−77°C) before placement into a pre-weighed specimen container. Brain weights were then determined prior to placement of the samples on dry ice followed by relocation to a −80°C freezer pending bioanalysis.
Pre-weighed whole brain tissue was homogenized (Omni Prep multichannel tissue homogenizer) using a 1:1 MilliQ water (containing 0.2% acetic acid)/acetonitrile mixture which was added to the brain using a 4:1 solution to brain ratio. Subsequently, the homogenate was centrifuged for 10 min at 4°C at a speed of 2688 g. Three 25-μl aliquots out of the top layer of the centrifuged homogenate were crashed into three QuanRecovery wells, each containing 150 μl of acetonitrile/internal standard. The crash was then centrifuged for 20 min at 2688 g while maintaining a temperature of 4°C. Mixing of the resultant supernatant with water (3:2) provided samples for triplicate analysis. Brain standards, quality controls (QCs) and blanks were prepared using a male Sprague–Dawley brain acquired from BioIVT using the same protocol outlined above. All standards, QCs, samples and blanks were then loaded onto the UPLC-MS/MS for analysis.
The concentration of VBJ103/mass was based on brain weights. The volume of the homogenate was based on a 4:1 dilution of the brains. The volumes of homogenate was calculated based on brain weights in Table S13.

concentration at 1 h ([2]; female SD rats (animals 26-28), 100 mg/kg SC, 1 h, 100 mg/kg, read-out: brain levels, individual animals): 39 nM and 51 nM
concentration at 1 h ([2]; female, Sprague-Dawley, rat, brain, sc, 100 mg/kg, female SD rats (animals 26-28), 100 mg/kg SC, 1 h, read-out: brain levels, individual animals): 40 nM
concentration at 1 h ([2]; female, Sprague-Dawley, rat, brain, sc, 100 mg·kg^−1, female rats, 100 mg·kg−1 s.c., 1 h per Table S12, read-out: mean brain concentration): 43 ± 4 nM
concentration at 1 h ([2]; male SD rats (animals 23-25), 100 mg/kg SC, 1 h, 100 mg/kg, read-out: brain levels, individual animals): 47 nM and 56 nM
concentration at 1 h ([2]; male, Sprague-Dawley, rat, brain, sc, 100 mg/kg, male SD rats (animals 23-25), 100 mg/kg SC, 1 h, read-out: brain levels, individual animals): 53 nM
concentration at 1 h ([2]; male, Sprague-Dawley, rat, brain, sc, 100 mg·kg^−1, male rats, 100 mg·kg−1 s.c., 1 h per Table S12, read-out: mean brain concentration): 52 ± 2 nM
SMILES: O=C(NC1CCC2(CCCC2)CC1)c1ccc(-c2ccccc2)cc1 [VBJ103, N-(Spiro[4.5]decan-8-yl)-[1,1′-biphenyl]-4-carboxamide]
drop in CBT versus vehicle ([1]; 3 mg·kg−1 i.p.): not different
time for CBT to return to baseline values ([1]; 3 mg·kg−1 s.c.): 223 ± 25 min
time for CBT to return to baseline values ([1]; 10 mg·kg−1 s.c.): 262 ± 48 min
time for CBT to return to baseline values ([1]; 30 mg·kg−1 s.c.): 380 ± 59 min
change in home cage activity ([1]; 3, 10 and 30 mg·kg−1 s.c.): without any significant change
fall in CBT ([1]; 3, 10 and 30 mg·kg−1 s.c., over 180 min): 1–2 °C and 2 °C
change in home cage activity ([1]; 3, 10 or 30 mg·kg−1 i.p.): no detectable change
fall in CBT ([1]; 3, 10 or 30 mg·kg−1 i.p.): dose-dependent fall
time of peak fall in CBT ([1]; 3, 10 or 30 mg·kg−1 i.p.): ≤ 60 min
drop in CBT versus 3 mg·kg−1 and vehicle ([1]; 10 and 30 mg·kg−1 i.p.): significantly greater
CBT or home cage activity compared to vehicle ([1]; 100 and 300 mg·kg−1 s.c.): did not alter
concentration at 1 h ([2]; female SD rats (animals 13-16), 100 mg/kg SC, 24 h, 100 mg/kg, read-out: brain levels, individual animals): 14.6 nM and 11.9 nM and 7.1 nM and 8.1 nM
concentration at 1 h ([2]; male SD rats (animals 9-12), 100 mg/kg SC, 24 h, 100 mg/kg, read-out: brain levels, individual animals): 6.9 nM and 7.9 nM and 3.9 nM and 4.9 nM
